Source: patent US6897316B2, “Substituted 2-phenyl-4-quinolone-3-carboxylic acid compounds and their use as antitumor agents” (China Medical University, priority 2003, dated 2005)
Converted amounts (≈) assume the structure as drawn.

How the values were obtained:
[1] = test system: lung cancer cell line (A-549); test: Preliminary cytotoxicity screening against lung cancer cell line A-549 (SRB assay); type: cell-based, human; conditions: for IC50: Homo sapiens, A549, 50% reduction in absorbance at 562 nm relative to untreated cells, Table 1 (esters VII, acids IX), read-out: ED50 (cytotoxicity against A-549); for IC50 / ED50 (cytotoxicity against A-549): A-549, SRB assay; for ED50 (cytotoxicity against A-549): 50% reduction in absorbance at 562 nm, Table 2 (tromethamine salts X)
Description: (§1) Compounds were assayed for in vitro cytotoxicity in a panel of human tumor cell lines at the School of Pharmacy, University of North Carolina at Chapel Hill, according to procedures described previously [Lee, K. H., Lin, Y. M., Wu, T. S., Zhang, D. C., Yamagishi, T., Hayashi, T., Hall, I. H., Chang, J. J., Wu, R. Y., Yang, T. H. The cytotoxic principles of Prunella vulgaris, Psychotria serpens, and Hyptis capitata: Ursolic acid and related derivatives. Planta Med. 1988, 54, 308-11; Boyd, M. R. Status of the National Cancer Institute preclinical antitumor drug discovery screen: implications for selection of new agents for clinical trial. Devita, V. T., Jr. Hellman, S., Rosenberg, S. A., Eds, J. B. Cancer: Principles and Practice of Oncology Update, 1989, 3: pp1-12, Lippincoft: Philadephia; Monks, A., Scudiero, D., Skehan, P., Shoemaker, R., Paull, K., Vistica, D., Hose, C., Langley, J., Cronise, P., Vaigro-Wolff, A., Gray-Goodrich, M., Campbell, H., Mayo, J., Boyd, M. Feasibility of a high-flux anticancer drug screen using a diverse panel of cultured human tumor cell lines. J. Natl. Cancer Inst. 1991, 83, 757-66.] The cell lines included human ovarian cancer (1A9), ileocecal carcinoma (HCT-8), lung carcinoma (A-549), glioblastoma (U-87-MG), bone (HOS), epidermoid carcinoma of the naynx (KB), P-gp-expressing epidermoid carcinoma of the nasopharynx (KB-VIN), and melanoma (SKMEL-2) cell line. The cytotoxic effects of each compound were obtained as EC50 values, which represent the molar drug concentrations required to cause 50% inhibition.
Preliminary screening of antitumor activity was based on the cytotoxicity tested in human long cancer (A-549) cell lines. […] Among 3-carboxylic acid derivatives (IX), the cytotoxicity was not remarkable when the m-position of 2-phenyl group was substituted by OCH3 group (IX-3, 7, 11). ED50 values were greater than 20 μg/mL. […] The antitumor activity was not good, if there was no substitution on the m-position of 2-phenyl group ([…]).

[2] = test system: ileocecal carcinoma (HCT-8) cell line; test: Activity against HTCL replication, HCT-8; type: cell-based, human; conditions: mean ED50
Description: as §1, with “The cell lines included human ovarian cancer (1A9), ileocecal carcinoma (HCT-8), lung carcinoma (A-549), glioblastoma (U-87-MG), bone (HOS), epidermoid carcinoma of the naynx (KB), P-gp-expressing epidermoid carcinoma of the nasopharynx (KB-VIN), and melanoma (SKMEL-2) cell line. The cytotoxic effects of each compound were obtained as EC50 values, which represent the molar drug concentrations required to cause 50% inhibition.” left out

[3] = test system: melanoma (SK-MEL-2) cell line; test: Activity against HTCL replication, SK-MEL-2; type: cell-based, human; conditions: mean ED50
Description: as §1, with “The cell lines included human ovarian cancer (1A9), ileocecal carcinoma (HCT-8), lung carcinoma (A-549), glioblastoma (U-87-MG), bone (HOS), epidermoid carcinoma of the naynx (KB), P-gp-expressing epidermoid carcinoma of the nasopharynx (KB-VIN), and melanoma (SKMEL-2) cell line. The cytotoxic effects of each compound were obtained as EC50 values, which represent the molar drug concentrations required to cause 50% inhibition.” left out

[4] = test system: human ovarian cancer (IA9) cell line; test: Activity against HTCL replication, IA9; type: cell-based; conditions: ovarian cancer IA9; mean ED50
Description: as §1
Antitumor activity of compounds IX-8 and X-8 was further tested on the following 8 cancer cell lines: CAKI, HOS, KB, KB-VIN, SK-MEL-2, U87-MG, HCT-8 and IA9. […] It is worth mentioning that these two compounds were quite active against human ovarian cancer cells (IA9), which were known to have a high level of drug resistant P-glycoprotein. IC50 of compound IX-8 against these cancer cells is only 0.03 μg/mL. Thus, this compound is really worth developing, particular against drug resistant ovarian cancer.

[5] = test system: glioblastoma (U87-MG) cell line; test: Activity against HTCL replication, U87-MG; type: cell-based, human; conditions: mean ED50
Description: as §1, with “The cell lines included human ovarian cancer (1A9), ileocecal carcinoma (HCT-8), lung carcinoma (A-549), glioblastoma (U-87-MG), bone (HOS), epidermoid carcinoma of the naynx (KB), P-gp-expressing epidermoid carcinoma of the nasopharynx (KB-VIN), and melanoma (SKMEL-2) cell line. The cytotoxic effects of each compound were obtained as EC50 values, which represent the molar drug concentrations required to cause 50% inhibition.” left out

bone (HOS) cell line = test: Activity against HTCL replication, HOS; type: cell-based, human; conditions: mean ED50
Description: as §1, with “The cell lines included human ovarian cancer (1A9), ileocecal carcinoma (HCT-8), lung carcinoma (A-549), glioblastoma (U-87-MG), bone (HOS), epidermoid carcinoma of the naynx (KB), P-gp-expressing epidermoid carcinoma of the nasopharynx (KB-VIN), and melanoma (SKMEL-2) cell line. The cytotoxic effects of each compound were obtained as EC50 values, which represent the molar drug concentrations required to cause 50% inhibition.” left out

| Molecule | melting point | IC50 [1] | ED50 (cytotoxicity against A-549) [1] | also measured |
| --- | --- | --- | --- | --- |
| COc1cccc(-c2[nH]c3ccc(Cl)cc3c(=O)c2C(=O)O)c1 [IX-7, 3′-Methoxy-6-chloro-2-phenyl-4-quinolone-3-carboxylic acid] | 243 °C (dec.) | > 20 µg/mL |  |  |
| CCOC(=O)c1c(-c2cccc(Cl)c2)[nH]c2ccc(OC)cc2c1=O [VII-9, Ethyl 3′-chloro-6-methoxy-2-phenyl-4-quinolone-3-carboxylate] |  | > 20 µg/mL |  |  |
| O=C(O)c1c(-c2cccc(Cl)c2)[nH]c2ccc(F)cc2c1=O [IX-1, 3′-Chloro-6-fluoro-2-phenyl-4-quinolone-3-carboxylic acid] |  | 20 µg/mL (≈ 63 µM) |  |  |
| O=C(O)C1C(=O)c2cc3c(cc2N=C1c1ccccc1)OCO3 (centres unmarked) [IX-22, 6,7-Methylenedioxy-2-phenyl-4-quinolone-3-carboxylic acid] | 267.5 to 269.2 °C (dec.) |  |  |  |
| COc1cccc(-c2[nH]c3ccc(F)cc3c(=O)c2C(=O)O)c1 [IX-3, 6-Fluoro-3′-methoxy-2-phenyl-4-quinolone-3-carboxylic acid] | 231 °C | > 20 µg/mL |  |  |
| NC(CO)(CO)CO.O=C(O)c1c(-c2cccc(Cl)c2)[nH]c2ccc(Cl)cc2c1=O [Compound X-6, 3′,6-Dichloro-2-phenyl-4-quinolone-3-carboxylic acid tromethamine salt] |  |  | >20 µg/mL |  |
| NC(CO)(CO)CO.O=C(O)c1c(-c2cccc(F)c2)[nH]c2ccc(F)cc2c1=O [Compound X-2, 3′,6-Difluoro-2-phenyl-4-quinolone-3-carboxylic acid tromethamine salt] |  |  | 4.3 µg/mL |  |
| COc1ccc2[nH]c(-c3cccc(Cl)c3)c(C(=O)O)c(=O)c2c1.NC(CO)(CO)CO [Compound X-9, 3′-Chloro-6-methoxy-2-phenyl-4-quinolone-3-carboxylic acid tromethamine salt] |  |  | 17.6 µg/mL |  |
| COc1cccc(-c2[nH]c3ccc(Cl)cc3c(=O)c2C(=O)O)c1.NC(CO)(CO)CO [Compound X-7, 3′-Methoxy-6-chloro-2-phenyl-4-quinolone-3-carboxylic acid tromethamine salt] |  |  | >20 µg/mL |  |
| COc1ccc2[nH]c(-c3cccc(Cl)c3)c(C(=O)O)c(=O)c2c1 [IX-9, 3′-Chloro-6-methoxy-2-phenyl-4-quinolone-3-carboxylic acid] | 223 °C (dec.) | 20 µg/mL (≈ 60.7 µM) |  |  |
| CCOC(=O)c1c(-c2cccc(OC)c2)[nH]c2ccc(OC)cc2c1=O [VII-10, Ethyl 3′,6-dimethoxy-2-phenyl-4-quinolone-3-carboxylate] |  | > 20 µg/mL |  |  |
| NC(CO)(CO)CO.O=C(O)c1c(-c2cccc(F)c2)[nH]c2ccc(Cl)cc2c1=O [Compound X-5, 3′-Fluoro-6-chloro-2-phenyl-4-quinolone-3-carboxylic acid tromethamine salt] |  |  | 10.9 µg/mL |  |
| CCOC(=O)c1c(-c2cccc(OC)c2)[nH]c2ccc(Cl)cc2c1=O [VII-7, Ethyl 3′-methoxy-6-chloro-2-phenyl-4-quinolone-3-carboxylate] |  | > 20 µg/mL |  |  |
| COc1ccc2[nH]c(-c3cccc(F)c3)c(C(=O)O)c(=O)c2c1.NC(CO)(CO)CO [Compound X-8, 3′-Fluoro-6-methoxy-2-phenyl-4-quinolone-3-carboxylic acid tromethamine salt] |  |  | 2.4 µg/mL | ED50 HCT-8 [2]: 1.20 µg/mL; ED50 SK-MEL-2 [3]: 2.0 µg/mL; ED50 IA9 [4]: 0.88 µg/mL; ED50 U87-MG [5]: 5.0 µg/mL; ED50 HOS (bone (HOS) cell line): 5.0 µg/mL |
| 6-Methoxy-2-phenyl-4-quinolone-3-carboxylic acid tromethamine salt [Compound X-11] |  |  | >20 µg/mL |  |
| CCOC(=O)c1c(-c2cccc(F)c2)[nH]c2ccc(Cl)cc2c1=O [VII-5, Ethyl 3′-fluoro-6-chloro-2-phenyl-4-quinolone-3-carboxylate] |  | > 20 µg/mL |  |  |
| COc1cccc(-c2[nH]c3ccc(OC)cc3c(=O)c2C(=O)O)c1 [IX-10, 3′,6-Dimethoxy-2-phenyl-4-quinolone-3-carboxylic acid] | > 300 °C | > 20 µg/mL |  |  |
| O=C(O)C1C(=O)c2cc(F)ccc2N=C1c1ccccc1 (centres unmarked) [IX-4, 6-Fluoro-2-phenyl-4-quinolone-3-carboxylic acid] | 297 °C |  |  |  |
| O=C(O)c1c(-c2cccc(F)c2)[nH]c2ccc(Cl)cc2c1=O [IX-5, 3′-Fluoro-6-chloro-2-phenyl-4-quinolone-3-carboxylic acid] | > 300 °C | 1.8 µg/mL (≈ 5.67 µM) |  |  |
| O=C(O)c1c(-c2cccc(F)c2)[nH]c2ccc(F)cc2c1=O [IX-2, 3′,6-Difluoro-2-phenyl-4-quinolone-3-carboxylic acid] | 272 °C (dec.) | 0.5 µg/mL (≈ 1.66 µM) |  |  |
| COc1ccc2c(c1)C(=O)C(C(=O)O)C(c1ccccc1)=N2 (centres unmarked) [IX-11, 6-Methoxy-2-phenyl-4-quinolone-3-carboxylic acid] | > 300 °C | > 20 µg/mL |  | cytotoxicity / antitumor activity in words ([1]; A-549, preliminary screening): not good |
| O=C(O)c1c(-c2cccc(Cl)c2)[nH]c2ccc(Cl)cc2c1=O [IX-6, 3′,6-Dichloro-2-phenyl-4-quinolone-3-carboxylic acid] | 260 °C (dec.) | > 20 µg/mL |  |  |
| NC(CO)(CO)CO.O=C(O)c1c(-c2cccc(Cl)c2)[nH]c2ccc(F)cc2c1=O [Compound X-1, 3′-Chloro-6-fluoro-2-phenyl-4-quinolone-3-carboxylic acid tromethamine salt] |  |  | 17.6 µg/mL |  |
| O=C(O)C1C(=O)c2cc(Cl)ccc2N=C1c1ccccc1 (centres unmarked) [IX-15, 6-Chloro-2-phenyl-4-quinolone-3-carboxylic acid] | 254.2 to 255.6 °C (dec.) |  |  |  |
